Measured values from patent US20260315562A1, “NOVEL FEED-ADDITIVE COMPOSITION” (KYNTOX BIOTECH INDIA PRIVATE LIMITED, priority 2023, published 2026).

Columns and labels:
WSSV = experiment: In vivo anti-viral bioassay: survival of freshwater crabs after WSSV challenge; for Animal survival/mortality: key: 0: Represents live animal; 1: Represents Animal Mortality; design: species or system P. hydrodromous
Experimental: Positive Control: The term is used herein in reference to disease positive control where only WSSV virus is injected without any antagonist. This positive for the disease expression.
The experimental groups have been divided in seven groups, Group-I-VII as described below:
(§1) Freshwater crabs P. hydrodromous were collected from Padavedu (12.6310070 79.052885°) Vellore, India.
(§2) The animals with a body weight of 20-25 g were transported to the laboratory and maintained at room temperature (25° C.). The crabs were fed twice a day with boiled egg whites. The crabs were kept in the described condition for one week before the experiment.
As described in earlier reports (Natarajan et al., 2017), haemolymph was drawn from WSSV infected shrimp using a 26-gauge syringe through heart puncture. The haemolymph was centrifuged at 3000 rpm for 20 minutes at 4° C. The supernatant was collected and it was centrifuged for 30 minutes at 4° C. and then it was filtered using 0.45p m and stored at −20° C. for further studies. The haemolymph were analyzed via PCR to confirm the presence of WSSV. To amplify the structural VP28 gene, a conventional PCR reaction was set up, which includes […], 5 pmol WSSV-VP28 primer (Table 1), 3 μl PCR-grade water, and 1 μl template DNA (Sundaram et al., 2016; Yoganandhan et al., 2003). The viral titer quantified through real time PCR, was 1.6×10^6 copies μL−1 which served as the stock for this study.
(§3) The anti-viral efficacy of GMVL and saponin-rich extract against WSSV was assessed in the freshwater crab, previously acclimated to laboratory conditions. The crabs were divided into different experimental groups containing 4 crabs per group and the experiment was performed in duplicates. The viral inoculum mixture was injected into the respective group after 3 h of pre-incubation. All the crabs were injected intramuscularly at the second abdominal segment. Briefly, healthy crabs received the injection as given above. The crabs were fed twice a day and observed regularly for gross signs of disease. The experiment was carried out up to several days depending on the survival after challenging with WSSV with/without above mentioned antagonist and mortality was recorded to plot a cumulative mortality graph.

[1] = Safety of test sample in non-infected freshwater crabs (Placebo group); note: key: 0: Represents live animal; 1: Represents Animal Mortality; type: in vivo, P. hydrodromous; settings: GML 5 mg/animal
Experimental: Placebo: The term is used herein in reference to disease negative wherein the highest dose of test molecule has been injected, and evidences for safety of test molecules.
as §1, §2, §3

[2] = system: white spot syndrome virus (WSSV); settings: dietary supplementation; Qian et al. 2021, Gong et al. 2022; cited from earlier work
[3] = preincubated with WSSV, co-injected (i.m)

**Q.** For CCCCCCCCCCCC(=O)OCC(O)CO (stereo not drawn) [GML, Glycerol monolaurate], which animal survival time (WSSV; 3 mg/animal, preincubated with WSSV, co-injected (i.m)) is on record?
**A.** The animal survival time was greater than 140 h.

**Q.** What about the “time within which all animals in the test groups died post challenging” value (WSSV; 1 and 3 mg/animal, preincubated with WSSV, co-injected (i.m)) of the same compound?
**A.** The value was no more than 150 h.

**Q.** What about the Animal survival/mortality (WSSV; GML 1 mg/animal, 0 h) of the same compound?
**A.** Its Animal survival/mortality is 0.

**Q.** And the Animal survival/mortality (WSSV; GML 1 mg/animal, 6 h)?
**A.** The Animal survival/mortality was 0.

**Q.** What about the Animal survival/mortality (WSSV; GML 1 mg/animal, 12 h) of the same compound?
**A.** Its Animal survival/mortality is 0.

**Q.** And the Animal survival/mortality (WSSV; GML 1 mg/animal, 24 h)?
**A.** The Animal survival/mortality was 1.

**Q.** What about the Animal survival/mortality (WSSV; GML 1 mg/animal, 48 h) of the same compound?
**A.** Its Animal survival/mortality is 0.

**Q.** What about the Animal survival/mortality (WSSV; GML 1 mg/animal, 72 h) of the same compound?
**A.** Its Animal survival/mortality is 1.

**Q.** And the Animal survival/mortality (WSSV; GML 1 mg/animal, 96 h)?
**A.** The Animal survival/mortality was 1.

**Q.** What about the Animal survival/mortality (WSSV; GML 1 mg/animal, 120 h) of the same compound?
**A.** The Animal survival/mortality was 1.

**Q.** And the Animal survival/mortality (WSSV; GML 3 mg/animal, 0 h)?
**A.** Its Animal survival/mortality is 0.

**Q.** What about the Animal survival/mortality (WSSV; GML 3 mg/animal, 6 h) of the same compound?
**A.** Its Animal survival/mortality is 0.

**Q.** What about the Animal survival/mortality (WSSV; GML 3 mg/animal, 12 h) of the same compound?
**A.** The Animal survival/mortality was 0.

**Q.** What about the Animal survival/mortality (WSSV; GML 3 mg/animal, 24 h) of the same compound?
**A.** Its Animal survival/mortality is 1.

**Q.** What about the Animal survival/mortality (WSSV; GML 3 mg/animal, 48 h) of the same compound?
**A.** Its Animal survival/mortality is 0.

**Q.** What about the Animal survival/mortality (WSSV; GML 3 mg/animal, 72 h) of the same compound?
**A.** Its Animal survival/mortality is 1.

**Q.** What about the Animal survival/mortality (WSSV; GML 3 mg/animal, 96 h) of the same compound?
**A.** The Animal survival/mortality was 1.

**Q.** What about the Animal survival/mortality (WSSV; GML 3 mg/animal, 120 h) of the same compound?
**A.** Its Animal survival/mortality is 1.

**Q.** What about the Animal survival/mortality (WSSV; GML 3 mg/animal, 144 h) of the same compound?
**A.** The Animal survival/mortality was 1.

**Q.** What about the “mortality (in words)” value (WSSV; alone or in combination) of the same compound?
**A.** The value was “the mortality is significant”.

**Q.** What about the “inhibition of the virus” value (WSSV; [3]) of the same compound?
**A.** Its value is “partial inhibition of the virus”.

**Q.** What about the “protection of the animal from lethality” value (WSSV; [3]) of the same compound?
**A.** The value was “could not protect the animal from lethality”.

**Q.** And the “Animal survival/mortality (Placebo)” value ([1]; 0 h)?
**A.** Its value is 0.

**Q.** What about the “Animal survival/mortality (Placebo)” value ([1]; 6 h) of the same compound?
**A.** Its value is 0.

**Q.** What about the “Animal survival/mortality (Placebo)” value ([1]; 12 h) of the same compound?
**A.** The value was 0.

**Q.** And the “Animal survival/mortality (Placebo)” value ([1]; 24 h)?
**A.** Its value is 0.

**Q.** And the “Animal survival/mortality (Placebo)” value ([1]; 48 h)?
**A.** The value was 0.

**Q.** And the “Animal survival/mortality (Placebo)” value ([1]; 72 h)?
**A.** Its value is 0.

**Q.** What about the “Animal survival/mortality (Placebo)” value ([1]; 96 h) of the same compound?
**A.** The value was 0.

**Q.** And the “Animal survival/mortality (Placebo)” value ([1]; 120 h)?
**A.** Its value is 0.

**Q.** What about the “Animal survival/mortality (Placebo)” value ([1]; 144 h) of the same compound?
**A.** Its value is 0.

**Q.** What about the WSSV copy number [2] of the same compound?
**A.** Its WSSV copy number is “reduced the WSSV copy number”.

**Q.** What about the “mortality of WSSV-infected crayfish” value [2] of the same compound?
**A.** The value was “reduce the mortality”.
